Experimental data taken from EP0319030A1, “Aminopropanol derivatives of 1,4:3,6-dianhydro-hexitol nitrates, processes for their preparation and their use as medicaments” (Heinrich Mack Nachf., priority 1987, dated 1989).
Marks after values point to notes of the source that are not given here.

Assays:
Assay type in all cases: in vivo
[1] = system: anesthetized rat; test: Lypressin-induced T-wave increase in the ECG (lypressin coronary spasm), method of M. Leitold et al.
From the text: (§1) In particular, they have a pronounced cardiovascular action. On isolated strips of veins from dogs, they act against the K⁺-induced contraction in a lower concentration than on aorta strips. On isolated hearts from guinea pigs, they increase coronary flow as a function of the dose. On anesthetized rats, they prevent lypressin coronary spasm as a function of the dose and significiantly increase the survival rate of rats following acute cardiac infarction. On normotensive conscious dogs, they lower the systolic blood pressure for a period of 6-8 hours after oral administration. On artifically respirated anesthetized, thoraxotomized dogs, they reduce the mean arterial pressure, the left ventricular systolic pressure, the left ventricular end diastolic pressure and the pressure in the Arteria pulmonalis and reduce the peripheral vascular resistance. In contrast to the known organic nitrate esters, they also lead to a long-lasting reduction in the systolic blood pressure of spontaneously hypertensive rats. Such an action profile is not known for any of the substances of similar structure which have already been described.

[2] = system: conscious beagle dogs; test: Systolic blood pressure and heart rate following peroral administration; details: 5.0 mg/kg peroral, mean ± SEM
From the text: as §1

[3] = system: Mice; test: Peroral tolerance in mice; details: mouse, in vivo
From the text: Set forth below is data obtained on the compounds of Examples 17, 19 and 20 that illustrates the pharmacological action of the compounds of the present invention.

[4] = system: rats; test: Survival rate after acute coronary ligature, method of I. Lepran et al.; details: 100.0 mg/kg orally 5 minutes before ligature
From the text: as §1

[5] = system: anesthetized dogs; test: Cardiovascular actions following intra-venous administration, opened thorax and artificial respiration; details: opened thorax, artificial respiration
From the text: as §1

COc1ccccc1N1CCN(CC(O)CO[C@H]2CO[C@H]3[C@@H]2OC[C@@H]3O[N+](=O)[O-])CC1 (some centres unmarked) [Example 20, 5-O-<3-[4-(2-Methoxyphenyl)-piprazinyl]-2-hydroxypropyl>-isoidide-2-nitrate]
ED50 ([1]; Rattus norvegicus, po, 0.5 h, perorally 30 minutes before the lypressin injection, dose column in mg/kg): 73.8 mg/kg
Duration of action at the ED50 dose ([1]; perorally at various times before the lypressin injection): 4 h
HR (heart rate), Action of substance after 1 hours [2]: 98 ± 7 Bts/M
HR (heart rate), Action of substance after 2 hours [2]: 109 ± 10 Bts/M
HR (heart rate), Action of substance after 4 hours [2]: 82 ± 7 Bts/M
HR (heart rate), Action of substance after 6 hours [2]: 78 ± 6 Bts/M
HR (heart rate), Action of substance after 8 hours [2]: 77 ± 6 Bts/M
SBP (systolic blood pressure), Action of substance after 1 hours [2]: 97 ± 8 mmHg
SBP (systolic blood pressure), Action of substance after 2 hours [2]: 95 ± 6 mmHg
SBP (systolic blood pressure), Action of substance after 4 hours [2]: 106 ± 4 mmHg
SBP (systolic blood pressure), Action of substance after 6 hours [2]: 113 ± 4 mmHg
SBP (systolic blood pressure), Action of substance after 8 hours [2]: 121 ± 3 mmHg
tolerance (clinical symptoms, fatal consequences) [3]: without clinical symptoms and without fatal consequences
Number of rats surviving after an acute coronary ligature, 24 hours ([4]; control 21/80): 14/20*
Number of rats surviving after an acute coronary ligature, 7 days ([4]; control 21/80): 14/20*
Number of rats surviving after an acute coronary ligature, 60 minutes ([4]; control 23/80): 14/20*
CO, Action of substance ([5]; 30 µg/kg intra-venous): 0.81 ± 0.3 l/M
CO, Change ([5]; 30 µg/kg intra-venous): 0.38 ± 0.1 l/M
CO, Duration of action ([5]; 30 µg/kg intra-venous): 12 ± 6 min
HR (heart rate), Action of substance ([5]; 30 µg/kg intra-venous): 192 ± 10 Bts/M
HR (heart rate), Change ([5]; 30 µg/kg intra-venous): 2 ± 2 Bts/M
HR (heart rate), Duration of action ([5]; 30 µg/kg intra-venous): 11 ± 4 min
LVEDP (left ventricular enddiastolic pressure), Action of substance ([5]; 30 µg/kg intra-venous): 7.5 ± 1.2 mmHg
LVEDP (left ventricular enddiastolic pressure), Change ([5]; 30 µg/kg intra-venous): 0.1 ± 0.2 mmHg
LVEDP (left ventricular enddiastolic pressure), Duration of action ([5]; 30 µg/kg intra-venous): 9 ± 7 min
LVSP (left ventricular systolic blood pressure), Action of substance ([5]; 30 µg/kg intra-venous): 116 ± 10 mmHg
LVSP (left ventricular systolic blood pressure), Change ([5]; 30 µg/kg intra-venous): 22 ± 4 mmHg
LVSP (left ventricular systolic blood pressure), Duration of action ([5]; 30 µg/kg intra-venous): 8 ± 3 min
MAP (mean arterial blood pressure), Action of substance ([5]; 30 µg/kg intra-venous): 66 ± 3 mmHg
MAP (mean arterial blood pressure), Change ([5]; 30 µg/kg intra-venous): 25 ± 5 mmHg
MAP (mean arterial blood pressure), Duration of action ([5]; 30 µg/kg intra-venous): 15 ± 2 min
PAP, Action of substance ([5]; 30 µg/kg intra-venous): 16.0 ± 1 mmHg
PAP, Change ([5]; 30 µg/kg intra-venous): 0.4 ± 0.2 mmHg
PAP, Duration of action ([5]; 30 µg/kg intra-venous): 11 ± 6 min
SV, Action of substance ([5]; 30 µg/kg intra-venous): 7.5 ± 2 mL/s
SV, Change ([5]; 30 µg/kg intra-venous): 2.3 ± 1 mL/s
SV, Duration of action ([5]; 30 µg/kg intra-venous): 12 ± 6 min
TPR (total peripheral vascular resistance), Action of substance ([5]; 30 µg/kg intra-venous): 63 ± 13 mmHg/ml
TPR (total peripheral vascular resistance), Change ([5]; 30 µg/kg intra-venous): 2 ± 13 mmHg/ml
TPR (total peripheral vascular resistance), Duration of action ([5]; 30 µg/kg intra-venous): 4 ± 2 min
dp/dtmax (maximum rate of increase in the left ventricular pressure), Action of substance ([5]; 30 µg/kg intra-venous): 2321 ± 363 mmHg/s
dp/dtmax (maximum rate of increase in the left ventricular pressure), Change ([5]; 30 µg/kg intra-venous): 758 ± 269 mmHg/s
dp/dtmax (maximum rate of increase in the left ventricular pressure), Duration of action ([5]; 30 µg/kg intra-venous): 15 ± 4 min
CO, Action of substance ([5]; 300 µg/kg intra-venous): 1.32 ± 0.7 l/M
CO, Change ([5]; 300 µg/kg intra-venous): 0.21 ± 0.6 l/M
CO, Duration of action ([5]; 300 µg/kg intra-venous): 35 ± 23 min
HR (heart rate), Action of substance ([5]; 300 µg/kg intra-venous): 197 ± 12 Bts/M
LVEDP (left ventricular enddiastolic pressure), Action of substance ([5]; 300 µg/kg intra-venous): 6.8 ± 1 mmHg
LVEDP (left ventricular enddiastolic pressure), Change ([5]; 300 µg/kg intra-venous): 1.1 ± 1 mmHg
LVEDP (left ventricular enddiastolic pressure), Duration of action ([5]; 300 µg/kg intra-venous): 18 ± 13 min
LVSP (left ventricular systolic blood pressure), Action of substance ([5]; 300 µg/kg intra-venous): 111 ± 11 mmHg
LVSP (left ventricular systolic blood pressure), Change ([5]; 300 µg/kg intra-venous): 34 ± 5 mmHg
LVSP (left ventricular systolic blood pressure), Duration of action ([5]; 300 µg/kg intra-venous): 34 ± 12 min
MAP (mean arterial blood pressure), Action of substance ([5]; 300 µg/kg intra-venous): 58 ± 2 mmHg
MAP (mean arterial blood pressure), Change ([5]; 300 µg/kg intra-venous): 39 ± 3 mmHg
MAP (mean arterial blood pressure), Duration of action ([5]; 300 µg/kg intra-venous): 35 ± 15 min
PAP, Action of substance ([5]; 300 µg/kg intra-venous): 15.7 ± 1 mmHg
PAP, Change ([5]; 300 µg/kg intra-venous): 0.7 ± 0.3 mmHg
PAP, Duration of action ([5]; 300 µg/kg intra-venous): 14 ± 13 min
SV, Action of substance ([5]; 300 µg/kg intra-venous): 7.2 ± 2.5 mL/s
SV, Change ([5]; 300 µg/kg intra-venous): 0.5 ± 2.9 mL/s
SV, Duration of action ([5]; 300 µg/kg intra-venous): 33 ± 23 min
TPR (total peripheral vascular resistance), Action of substance ([5]; 300 µg/kg intra-venous): 35 ± 6 mmHg/ml
TPR (total peripheral vascular resistance), Change ([5]; 300 µg/kg intra-venous): 39 ± 9 mmHg/ml
TPR (total peripheral vascular resistance), Duration of action ([5]; 300 µg/kg intra-venous): 6 ± 2 min
dp/dtmax (maximum rate of increase in the left ventricular pressure), Action of substance ([5]; 300 µg/kg intra-venous): 2056 ± 385 mmHg/s
dp/dtmax (maximum rate of increase in the left ventricular pressure), Change ([5]; 300 µg/kg intra-venous): 1053 ± 333 mmHg/s
dp/dtmax (maximum rate of increase in the left ventricular pressure), Duration of action ([5]; 300 µg/kg intra-venous): 36 ± 11 min
CO, Action of substance ([5]; 3000 µg/kg intra-venous): 2.02 ± 0.8 l/M
CO, Change ([5]; 3000 µg/kg intra-venous): 0.87 ± 0.7 l/M
CO, Duration of action ([5]; 3000 µg/kg intra-venous): 3 ± 0.4 min
HR (heart rate), Action of substance ([5]; 3000 µg/kg intra-venous): 169 ± 34 Bts/M
HR (heart rate), Change ([5]; 3000 µg/kg intra-venous): 30 ± 15 Bts/M
HR (heart rate), Duration of action ([5]; 3000 µg/kg intra-venous): 80 ± 44 min
LVEDP (left ventricular enddiastolic pressure), Action of substance ([5]; 3000 µg/kg intra-venous): 2.7 ± 3.8 mmHg
LVEDP (left ventricular enddiastolic pressure), Change ([5]; 3000 µg/kg intra-venous): 2.3 ± 1.7 mmHg
LVEDP (left ventricular enddiastolic pressure), Duration of action ([5]; 3000 µg/kg intra-venous): 104 ± 51 min
LVSP (left ventricular systolic blood pressure), Action of substance ([5]; 3000 µg/kg intra-venous): 98 ± 21 mmHg
LVSP (left ventricular systolic blood pressure), Change ([5]; 3000 µg/kg intra-venous): 55 ± 15 mmHg
LVSP (left ventricular systolic blood pressure), Duration of action ([5]; 3000 µg/kg intra-venous): 128 ± 12 min
MAP (mean arterial blood pressure), Action of substance ([5]; 3000 µg/kg intra-venous): 56 ± 2 mmHg
MAP (mean arterial blood pressure), Change ([5]; 3000 µg/kg intra-venous): 45 ± 5 mmHg
MAP (mean arterial blood pressure), Duration of action ([5]; 3000 µg/kg intra-venous): 118 ± 20 min
PAP, Action of substance ([5]; 3000 µg/kg intra-venous): 14.6 ± 1 mmHg
PAP, Change ([5]; 3000 µg/kg intra-venous): 1.1 ± 0.3 mmHg
PAP, Duration of action ([5]; 3000 µg/kg intra-venous): > 177 min
SV, Action of substance ([5]; 3000 µg/kg intra-venous): 10.6 ± 3.3 mL/s
SV, Change ([5]; 3000 µg/kg intra-venous): 50 ± 0.7 mL/s
SV, Duration of action ([5]; 3000 µg/kg intra-venous): 4 ± 0.0 min
TPR (total peripheral vascular resistance), Action of substance ([5]; 3000 µg/kg intra-venous): 24 ± 7 mmHg/ml
TPR (total peripheral vascular resistance), Change ([5]; 3000 µg/kg intra-venous): 56 ± 7 mmHg/ml
TPR (total peripheral vascular resistance), Duration of action ([5]; 3000 µg/kg intra-venous): 27 ± 21 min
dp/dtmax (maximum rate of increase in the left ventricular pressure), Action of substance ([5]; 3000 µg/kg intra-venous): 1977 ± 537 mmHg/s
dp/dtmax (maximum rate of increase in the left ventricular pressure), Change ([5]; 3000 µg/kg intra-venous): 1395 ± 263 mmHg/s
dp/dtmax (maximum rate of increase in the left ventricular pressure), Duration of action ([5]; 3000 µg/kg intra-venous): > 148 min
